Results as given in patent US20230212180A1, “SUBSTITUTED PYRAZINE COMPOUND, PHARMACEUTICAL COMPOSITION COMPRISING SAME, AND USE THEREOF” (Sichuan Kelun-Biotech Biopharmaceutical Co., Ltd., priority 2020, published 2023).

Experiments:
[1] = Pharmacokinetic (PK) studies in SD rat; type: in vivo
Description: Test Example 6: Pharmacokinetic (PK) Studies in SD Rat
(§1) The compound of Example 12 and Control Compound 2 were administered to male SD rats by intravenous injection (IV) and gavage (PO) respectively to estimate the pharmacokinetic properties. Dosing amounts for IV and PO routes were 1 mg/kg and 5 mg/kg, respectively. The solvent for IV route was 5% DMSO+5% Solutol (polyoxyl 15-hydroxystearate)+90% Saline (physiological saline), and the solvent for PO route was 0.5% MC (sodium methylcellulose). Blood was collected at various time points after IV and PO administration. The blood was anticoagulated using EDTA.K2, and centrifuged to obtain plasma samples. The plasma samples were preserved at −80° C.
The plasma samples were subjected to protein precipitation and then to the LC-MS/MS analysis. WinNonlin 6.3 software was used to calculate the pharmacokinetic parameters by non-compartmental model, and the results were listed in Table 6 below.

[2] = Pharmacokinetic (PK) studies in beagle dog; type: in vivo; settings: for AUC(0-t) / clearance / half-life: dog, male beagle dogs, plasma
Description: Test Example 8: Pharmacokinetic (PK) Studies in Beagle Dog
as §1, with “Example 12,” for “Example 12 and”, “Compound 1, Control Compound 2, and TNO-155” for “Compound 2”, “male beagle dogs” for “male SD rats”, “were 0.5” for “were 1”, “and 2.5 mg/kg.” for “and 5 mg/kg, respectively.”, “DMSO+5% Solutol+90% Saline,” for “DMSO+5% Solutol (polyoxyl 15-hydroxystearate)+90% Saline (physiological saline),”
The plasma samples were subjected to protein precipitation and then to the LC-MS/MS analysis. WinNonlin 6.3 software was used to calculate the pharmacokinetic parameters by non-compartmental model, and the results were listed in Table 8 below.

NCI-H358 cell xenograft = assay: Tumor inhibition in NCI-H358 xenograft model; type: in vivo, Balb/c-nu mice; settings: for TGI (%) (calculated by the tumor volume): oral, 21 days
Text: Test Example 10: Experiment on Tumor Inhibition in NCI-H358 Xenograft Model
A subcutaneous xenograft mouse model was established by subcutaneously inoculating human non-small cell lung cancer cells NCI-H358 into the right scapulae of Balb/c-nu mice. After tumor formation, the mice were orally administered to evaluate the in vivo drug efficacy of different test compounds.
The NCI-H358 cells were subjected to monolayer in vitro culture. The culture conditions were as follows: 10% fetal bovine serum was added into the RPMI 1640 medium, and the cells were cultured in an incubator at 37° C. in air containing 5% CO2. The cells were digested twice/trice a week with pancreatin-EDTA for passaging. When the cells were in exponential growth phase, the cells were harvested, counted, and inoculated.
Before inoculated with tumor cells, the experimental mice were identified sequentially with numbered ear spikes specific to mice.
Every of the mice were subcutaneously inoculated with 1×10^6 NCI-H358 cells (suspended in 0.1 ml PBS+Matrigel Matrix) into the right scapulae. It was predicted that the mean tumor volume on Day 7 would be ˜200 mm^3. Based on the measurement results on Day 7, thirty mice with regular shapes and uniform volumes of tumor were screened, randomly divided into 5 groups and administered according to the experimental scheme (the dosing regimen was as shown in Table 10 (lasting for 21 days)). The vehicle was 5% DMSO+5% Solutol+90% H2O.
Mice were weighed and tumor volumes were measured trice a week, and the data were recorded. The tumor volume (V) was calculated by the following equation: V=½×a×b^2, wherein a and b indicated the length and width, respectively.
The anti-tumor efficacy was evaluated by tumor growth inhibition TGI (%). […] When the tumor regressed, TGI (%) (tumor volume)=100%−(TVt−TV0)/TV0×100%.
If the tumor was smaller than its initial volume, i.e., Vt<V0, it was defined as partial regression (PR) of the tumor. If the tumor disappeared completely, it was defined as complete regression (CR) of the tumor.

[3] = rat, in vivo, male SD rats, IV, 1 mg/kg, plasma
[4] = rat, in vivo, male SD rats, PO, 5 mg/kg, plasma

For `C[C@@H]1OCC2(CCN(c3ncc(Sc4ccnc(N5CC(C(C)(C)O)C5)c4Cl)nc3CO)CC2)[C@@H]1N` [Example 12, 2-(1-(4-(5-((3S,4S)-4-amino-3-methyl-2-oxa-8-azaspiro[4.5]decan-8-yl)-6-(hydroxymethyl)pyrazin-2-ylthio)-3-chloropyridin-2-yl)azetidin-3-yl)propan-2-ol], the “pharmacokinetic properties (in words)” value ([1]; SD rat, 1 mg/kg by injection and 5 mg/kg by mouth) was “excellent pharmacokinetic properties”, the AUC(0-t) [1, 3] was 1690 ng·h/mL and the Cmax [1, 3] was 373 ng/mL. For the same molecule, the clearance [1, 3] was 9.8 mL/min/kg, the AUC(0-t) [1, 4] was 9680 ng·h/mL and the Cmax [1, 4] was 1110 ng/mL. The “pharmacokinetic properties (in words)” value ([2]; beagle dog, 0.5 mg/kg by injection and 2.5 mg/Kg by mouth) was “excellent pharmacokinetic properties”, the AUC(0-t) ([2]; in vivo, IV, 0.5 mg/kg) was 3090 ng·h/mL and the clearance ([2]; in vivo, IV, 0.5 mg/kg) was 2.31 mL/min/kg. For the same molecule, the AUC(0-t) ([2]; in vivo, PO, 2.5 mg/kg) was 11000 ng·h/mL, the half-life ([2]; in vivo, PO, 2.5 mg/kg) was 24.5 h and the “TGI (%) (calculated by the tumor volume)” value (NCI-H358 cell xenograft; 3 mpk/QD) was 84.35%. The “TGI (%) (calculated by the tumor volume)” value (NCI-H358 cell xenograft; 10 mpk/QD) was 93.14% and the “tumor inhibitory effect (in words)” value (NCI-H358 cell xenograft; oral administration for 21 consecutive days) was “remarkable tumor inhibitory effect”.

`C[C@@H]1OCC2(CCN(c3cnc(Sc4ccnc(N)c4Cl)c(N)n3)CC2)[C@@H]1N` [TNO-155, reference compound] gave an AUC(0-t) ([2]; IV, 0.5 mg/kg) of 2350 ng·h/mL, a clearance ([2]; IV, 0.5 mg/kg) of 3.43 mL/min/kg and an AUC(0-t) ([2]; PO, 2.5 mg/kg) of 10100 ng·h/mL. The half-life ([2]; PO, 2.5 mg/kg) was 13.2 h, the “TGI (%) (calculated by the tumor volume)” value (NCI-H358 cell xenograft; 5 mpk/BID) was 68.59% and the “TGI (%) (calculated by the tumor volume)” value (NCI-H358 cell xenograft; 10 mpk/QD) was 58.49%.
